Results taken from patent publication US20250041294A1, “Synergistic compositions for use in the treatment of cancer” (Sartar Therapeutics Oy, priority 2021, published 2025).
Like-named read-outs stand apart in the source and are kept apart here.

Legend:
Assay type in all cases: cell-based
GOT3 cell line = assay: High throughput drug sensitivity and resistance test (CellTiter-Glo, 72 hours); settings: GOT3; for GOT3 cell line: DSS(combo (BAY2666605))-DSS(drug): drug combined with BAY2666605 (40 nM) minus drug alone; for GOT3 cell line: DSS(combo (anagrelide))-DSS(drug): drug combined with anagrelide hydrochloride (100 nM) minus drug alone
Method: (§1) Cell lines. PDE3A-positive (GIST882, SA4, and GOT3) and PDE3A-negative cell lines (93TT449, 94T778, LPS141, MLS17656-92, MLS402-91, and SW872) were cultured in RPMI Medium 1640 (Gibco) with 5-, 10- or 20% fetal bovine serum (FBS, gibco), 100 U/mL of penicillin, 100 […] and 0.03 mg/mL of L-glutamine (Pen Strep Glut, Gibco, 10378-016) in a humidified, 5% CO2 atmosphere at 37° C.
(§2) High throughput drug sensitivity and resistance test. A sensitivity and resistance of cancer cell lines to 528 compounds were investigated in 9 cell lines (GIST882, SA4, GOT3, 93TT449, 94T778, LPS141, MLS17656-92, MLS402-91, and SW872). In addition, same compounds were investigated together with anagrelide hydrochloride (100 nM) treatment in the PDE3A low expressing cell lines SA4 and GOT3, and with BAY2666605 (40 nM) in all PDE3A-positive cell lines GIST882, SA4 and GOT3. The compounds were dissolved in 100% dimethyl sulfoxide or water and plated in 10-fold dilutions covering a 10,000-fold concentration range on flat clear bottom 384-well microplates as described in detail earlier (Pulkka O P, et al 2019). A cell viability was measured after 72 hours using CellTiter-Glo Cell Viability assay (Promega Inc.) and PHERAstar FS plate reader (BMG Labtech). The data were normalized to negative (0.01% dimethyl sulfoxide only) and positive (100 μmol/L benzethonium chloride) controls.
(§3) A four-parameter logistic dose-response curves were estimated by using the Marquardt-Levenberg algorithm and Breeze analysis platform. Drug responses to the test compounds were measured using the drug sensitivity score (DSS). Drug synergy partners, which were common in investigated cell lines were identified as following: DSS value of a single agent was subtracted from the DSS value of anagrelide-drug combination in single cell lines. […] The analysis was repeated by using BAY2666605 as a PDE3A modulator.

SA4 cell line = assay: as above; settings: SA4; for SA4 cell line: DSS(combo (BAY2666605))-DSS(drug): drug combined with BAY2666605 (40 nM) minus drug alone; for SA4 cell line: DSS(combo (anagrelide))-DSS(drug): drug combined with anagrelide hydrochloride (100 nM) minus drug alone
Method: as §1, §2, §3

GIST882 cell line = assay: as above; settings: drug combined with BAY2666605 (40 nM) minus drug alone
Method: High throughput drug sensitivity and resistance test. […] In addition, same compounds were investigated together with anagrelide hydrochloride (100 nM) treatment in the PDE3A low expressing cell lines SA4 and GOT3, and with BAY2666605 (40 nM) in all PDE3A-positive cell lines GIST882, SA4 and GOT3. […] A cell viability was measured after 72 hours using CellTiter-Glo Cell Viability assay (Promega Inc.) and PHERAstar FS plate reader (BMG Labtech). The data were normalized to negative (0.01% dimethyl sulfoxide only) and positive (100 μmol/L benzethonium chloride) controls.
as §3

GOT3 and SA4 cell lines = assay: High throughput drug sensitivity and resistance test, average over cell lines (anagrelide combination); settings: anagrelide combination, average of SA4 and GOT3; aDSS higher than 3.0 = synergy
Method: as §1, §2, §3

[1] = tested on: GIST882, GOT3 and SA4 cell lines; assay: High throughput drug sensitivity and resistance test, average over cell lines (BAY2666605 combination); settings: for Average DSS (aDSS): BAY2666605 combination, average of GIST882, SA4 and GOT3, aDSS higher than 3.0 = synergy
Method: as §1, §2, §3

[2] = with anagrelide (GOT3, SA4) or BAY2666605 (GIST882, GOT3, SA4)

Structure (SMILES) | GOT3 cell line: DSS(combo (BAY2666605))-DSS(drug) (GOT3 cell line) | GOT3 cell line: DSS(combo (anagrelide))-DSS(drug) (GOT3 cell line) | SA4 cell line: DSS(combo (BAY2666605))-DSS(drug) (SA4 cell line) | SA4 cell line: DSS(combo (anagrelide))-DSS(drug) (SA4 cell line) | GIST882 cell line: DSS(combo (BAY2666605))-DSS(drug) (GIST882 cell line) | Average DSS (aDSS) (GOT3 and SA4 cell lines) | Average DSS (aDSS) [1] | synergy in high-throughput screening (in words) [1, 2] | synergy in high-throughput screening (in words) [1]
COc1cc(C(=O)O)ccc1NC(=O)[C@@H]1N[C@@H](CC(C)(C)C)[C@](C#N)(c2ccc(Cl)cc2F)[C@H]1c1cccc(Cl)c1F [Idasanutlin, idasanutlin] | −0.5 | −1 | 19.6 | 8.5 | 0 | 3.75 | 6.4 | synergistic | –
CCCCc1nc2cc(/C=C/C(=O)NO)ccc2n1CCN(CC)CC [Pracinostat, pracinostat] | 1.5 | −1.4 | 12 | 14.8 | 5.7 | 6.7 | 6.4 | synergistic | –
CCN(CC)Cc1ccc2cc(COC(=O)Nc3ccc(C(=O)NO)cc3)ccc2c1 [Givinostat, givinostat] | 3 | −0.7 | 18.5 | 10 | 7.3 | 4.65 | 9.6 | synergistic | –
CC1(C)CCC(CN2CCN(c3ccc(C(=O)NS(=O)(=O)c4ccc(NCC5CCOCC5)c([N+](=O)[O-])c4)c(Oc4cnc5[nH]ccc5c4)c3)CC2)=C(c2ccc(Cl)cc2)C1 [Venetoclax, venetoclax] | 0.2 | 0 | 29 | 6.2 | 12.2 | 3.1 | 13.8 | – | –
O=C(CCCCCCC(=O)Nc1ccccc1)NO [Vorinostat, vorinostat] | 1.6 | −0.7 | 13.7 | 7.2 | 4.2 | 3.25 | 6.5 | synergistic | –
CO[C@H]1C[C@@H]2CC[C@@H](C)[C@@](O)(O2)C(=O)C(=O)N2CCCC[C@H]2C(=O)O[C@H]([C@H](C)C[C@@H]2CC[C@@H](O)[C@H](OC)C2)CC(=O)[C@H](C)/C=C(\C)[C@@H](O)[C@@H](OC)C(=O)[C@H](C)C[C@H](C)/C=C/C=C/C=C/1C [Sirolimus, sirolimus] | 2 | 3.4 | 7.9 | 9.5 | 3.4 | 6.45 | 4.4 | – | –
CN(C)Cc1c(C(=O)NCCOc2ccc(C(=O)NO)cc2)oc2ccccc12 [Abexinostat, abexinostat] | 2.1 | −1.1 | 12.3 | 10.9 | 4.2 | 4.9 | 6.2 | synergistic | –
CC(C)C[C@@H](C(=O)N[C@H](C(=O)OC1CCCC1)c1ccccc1)[C@H](O)C(=O)NO [Tosedostat, tosedostat] | 6.7 | 2.5 | 14.6 | 5.1 | 21 | 3.8 | 14.1 | synergistic | –
O=C(/C=C/c1cccc(S(=O)(=O)Nc2ccccc2)c1)NO [Belinostat, belinostat] | 0.8 | 1.1 | 15.8 | 10 | −0.3 | 5.55 | 5.4 | synergistic | –
COc1ncc(-c2ccc3nccc(-c4ccnnc4)c3c2)cc1NS(=O)(=O)c1ccc(F)cc1F [Omipalisib, omipalisib] | −0.4 | – | 6.5 | – | 7.4 | – | 4.5 | synergistic | –
CN(C)CCCOc1ccc(-c2ccc3ncc4c(c3c2)n(C2CCOCC2)c(=O)n4C)cn1 [AZD0156] | −1.2 | – | 3 | – | 7.5 | – | 3.1 | synergistic | –
CO[C@H]1C[C@@H]2CC[C@@H](C)[C@@](O)(O2)C(=O)C(=O)N2CCCC[C@H]2C(=O)O[C@H]([C@H](C)C[C@@H]2CC[C@@H](OP(C)(C)=O)[C@H](OC)C2)CC(=O)[C@H](C)/C=C(\C)[C@@H](O)[C@@H](OC)C(=O)[C@H](C)C[C@H](C)/C=C/C=C/C=C/1C [Ridaforolimus, ridaforolimus] | −1.9 | 4.4 | 13.7 | 13.2 | 0.3 | 8.8 | – | – | –
O=C(CCCCCCNC(=O)c1cnc(N(c2ccccc2)c2ccccc2)nc1)NO [Rocilinostat, rocilinostat] | 0.9 | – | 7.5 | – | 1.4 | – | 3.3 | – | synergistic
Cn1nnc2c(C(N)=O)ncn2c1=O [Temozolomide, temozolomide] | 1.9 | – | 5.2 | – | 5.4 | – | 4.2 | – | –
